Values joined by “and” are separate entries in the source; they are usually repeats but may differ in a detail not shown here. Identical values can stand only once. Toxic doses and inconclusive results are not listed. The calls were made as follows: active = survival T/C of 150% or more; inactive = T/C below 125% in these data.
Tested on: CD2F1 mice, L1210 leukemia ip, survival T/C
Test: NCI In Vivo Anticancer Drug Screen. Data for tumor model L1210 Leukemia (intraperitoneal) in CD2F1 (CDF1) mice
Conditions: endpoint: mean survival time, higher = longer survival
Procedure, shortened: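 Antitumor effect is scored in animals hosting a serially transplanted tumor. Values compare compound-dosed animals against vehicle-only controls as a simple quotient.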

[1] = dose: 100.0 mg/kg/injection, schedule: Q01DX009 (ip), vehicle: saline with Tween-80
[2] = dose: 200.0 mg/kg/injection, schedule: Q01DX009 (ip), vehicle: saline with Tween-80
[3] = dose: 400.0 mg/kg/injection, schedule: Q01DX009 (ip), vehicle: saline with Tween-80
[4] = dose: 100.0 mg/kg/injection, schedule: Q04DX003 (ip), vehicle: saline with Tween-80
[5] = dose: 200.0 mg/kg/injection, schedule: Q04DX003 (ip), vehicle: saline with Tween-80
[6] = dose: 400.0 mg/kg/injection, schedule: Q04DX003 (ip), vehicle: saline with Tween-80

Measured: T/C

COCc1nccc2c1[nH]c1ccccc12
inactive: [1] 92 % of control | [2] 110 % of control | [3] 107 % of control

Cc1c(C)c(Cl)c(C)c(C)c1Cl
inactive: dose: 5.0 mg/kg/injection, schedule: Q01DX009 (ip), vehicle: saline with Tween-80 98 % of control | dose: 5.0 mg/kg/injection, schedule: Q04DX003 (ip), vehicle: saline with Tween-80 100 % of control | dose: 10.0 mg/kg/injection, schedule: Q01DX009 (ip), vehicle: saline with Tween-80 104 % of control | dose: 10.0 mg/kg/injection, schedule: Q04DX003 (ip), vehicle: saline with Tween-80 100 % of control | dose: 20.0 mg/kg/injection, schedule: Q01DX009 (ip), vehicle: saline with Tween-80 98 % of control | dose: 20.0 mg/kg/injection, schedule: Q04DX003 (ip), vehicle: saline with Tween-80 105 % of control

C[CH2][Sn]([F])([CH2]C)[CH2]C
inactive: dose: 0.37 mg/kg/injection, schedule: Q01DX009 (ip), vehicle: saline with Tween-80 98 % of control | dose: 0.75 mg/kg/injection, schedule: Q01DX009 (ip), vehicle: saline with Tween-80 101 % of control | dose: 1.5 mg/kg/injection, schedule: Q01DX009 (ip), vehicle: saline with Tween-80 104 % of control | dose: 3.0 mg/kg/injection, schedule: Q01DX009 (ip), vehicle: saline with Tween-80 102 % of control | dose: 6.0 mg/kg/injection, schedule: Q01DX009 (ip), vehicle: saline with Tween-80 98 % of control

O=C1C2C3CCC(CC3)C2C(=O)C2C3CCC(C3)C12 (stereo not given)
inactive: [4] 100 % of control | [5] 92 % of control | [6] 88 % of control

C[SeH]C.C[SeH]C.[Cl][Pt][Cl]
inactive: dose: 0.94 mg/kg/injection, schedule: Q04DX003 (ip), vehicle: saline 100 % of control | dose: 1.88 mg/kg/injection, schedule: Q04DX003 (ip), vehicle: saline 97 % of control | dose: 3.75 mg/kg/injection, schedule: Q04DX003 (ip), vehicle: saline 97 % of control | dose: 7.5 mg/kg/injection, schedule: Q04DX003 (ip), vehicle: saline 100 % of control | dose: 15.0 mg/kg/injection, schedule: Q04DX003 (ip), vehicle: saline 100 % of control | dose: 30.0 mg/kg/injection, schedule: Q04DX003 (ip), vehicle: saline 105 % of control

COc1ccc(NC(=O)NCCCl)cc1
inactive: dose: 100.0 mg/kg/injection, schedule: Q01DX001 (ip), vehicle: saline with Tween-80 90 % of control | dose: 200.0 mg/kg/injection, schedule: Q01DX001 (ip), vehicle: saline with Tween-80 94 % of control

Cc1cc(NC(=O)Nc2cc(Cl)ccc2C)no1
inactive: dose: 50.0 mg/kg/injection, schedule: Q01DX009 (ip), vehicle: Klucel (hydroxypropylcellulose) (HPC) 98 % of control | dose: 200.0 mg/kg/injection, schedule: Q01DX009 (ip), vehicle: Klucel (hydroxypropylcellulose) (HPC) 91 % of control

CCOC(=O)[C@]1(Br)CC[C@@]1(Br)C(=O)OCC
inactive: dose: 12.5 mg/kg/injection, schedule: Q01DX009 (ip), vehicle: saline with Tween-80 96 % of control | dose: 25.0 mg/kg/injection, schedule: Q01DX009 (ip), vehicle: saline with Tween-80 95 % of control and 96 % of control | dose: 50.0 mg/kg/injection, schedule: Q01DX009 (ip), vehicle: saline with Tween-80 92 % of control and 96 % of control | [1] 93 % of control and 101 % of control | [2] 100 % of control and 101 % of control | [3] 98 % of control and 106 % of control

NOCc1ccccc1CON
inactive: dose: 75.0 mg/kg/injection, schedule: Q01DX001 (ip), vehicle: saline 96 % of control | dose: 150.0 mg/kg/injection, schedule: Q01DX001 (ip), vehicle: saline 100 % of control | dose: 300.0 mg/kg/injection, schedule: Q01DX001 (ip), vehicle: saline 100 % of control

CN=C(NC)S(=O)O
inactive: dose: 100.0 mg/kg/injection, schedule: Q01DX009 (ip), vehicle: saline 97 % of control | dose: 200.0 mg/kg/injection, schedule: Q01DX009 (ip), vehicle: saline 97 % of control | dose: 400.0 mg/kg/injection, schedule: Q01DX009 (ip), vehicle: saline 101 % of control

c1cc2c3c(c1)CCC3CCC2 (stereo not given)
inactive: [1] 96 % of control | [2] 101 % of control | [3] 90 % of control

O=C(O)c1ccccc1NCNc1ccccc1C(=O)O
inactive: [4] 100 % of control | [5] 93 % of control | [6] 110 % of control

From PubChem BioAssay AID256 (DTP/NCI, 2004)
